# Measurements as given in patent US4281009A, “Hydantoin derivatives” (Nippon Zoki Pharmaceutical Co., Ltd., priority 1978, dated 1981).
# What was measured:
# [1] = Acute toxicity test (LD50, Litchfield-Wilcoxon), mice; details: mouse, in vivo, ip, intraperitoneal
# Protocol: (§1) Toxicity tests were carried out by intraperitoneal administration of the compound of the present invention to groups each comprising 10 ICR-strain mice and SD-strain rats. LD50 was calculated by the Litchfield-Wilcoxon method based on the number of death 72 hours after the administration.
# [2] = Acute toxicity test (LD50, Litchfield-Wilcoxon), rats; details: rat, in vivo, ip, intraperitoneal
# Protocol: as §1
# SART stress mice = test: Inhibitory effects on increase of heart rate and elongation of QRS-time in SART stress mice; assay type: in vivo, mice (dd-strain male); details: 9th day, Average ± S.D.
# Protocol: (§2) SART stress animals used in the tests described below were raised according to a method of Kita, et al. [Folia Pharmacol. Japan.: 71, 195-210 (1975)].
# 2. Inhibitory effects on increase of heart rate and elongation of QRS-time in stress animals:
# Groups of mice each comprising 11 or 12 dd-strain male mice were divided into three groups in the same manner as above and heart rate and QRS-time were determined on the 9th day after initiation of the tests.
# isolated duodenum = test: Recovery of acetylcholine sensitivity of isolated duodenum of SART stress mice (Magnus method); assay type: in vivo, mice (dd-strain male); details: 6th day, Ach 10^-7 g/ml, Average ± S.E.
# Excerpt: as §2
# 3. Effect of recovering acetylcholine (Ach) sensitivity of isolated intestinal tract:
# Groups each comprising at least 10 dd-strain male mice were used. The compounds of the present invention or other comparative drugs were given intraperitoneally once a day during the stress-causing operation. On the 6th day, Ach (10^-7 g/ml.) sensitivity of isolated duodenum was examined using the Magnus method.
# dd-strain male mice [3] = test: Inhibitory effect on spontaneous motor activities (Animex method); assay type: in vivo; details: after 60 minutes
# Protocol: 4.1 Inhibitory effect on spontaneous motor activities:
# Groups each comprising 8-16 dd-strain male mice were used. The compounds of the present invention were given intraperitoneally. After 60 minutes, spontaneous motor activities for 15 minutes were measured by the Animex method.
# dd-strain male mice [4] = test: Inhibitory effect on exploratory movements; assay type: in vivo; details: after 60 minutes
# Protocol: 4.2. Inhibitory effect on exploratory movements:
# Groups each comprising 16-35 dd-strain male mice were used. The compounds of the present invention were given intraperitoneally. After 60 minutes, exploratory movements for 15 minutes were measured with an exploratory movement recorder by a method of Tokyo Kyoiku University.
# [5] = test system: normal mice and SART stress mice; test: Analgesic effect, tail pressure method (Randall-Selitto's device); assay type: in vivo, mice (ddY-strain male); details: for change in vivo at 100 mg/kg / change in vivo at 160 mg/kg: Mus musculus; for change in vivo at 160 mg/kg: peroral 160 mg/kg
# Summary of the method: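 Randall-Selitto tail pressure threshold measured 60 min after intraperitoneal dosing, expressed as post/pre-dose pressure ratio versus vehicle control (0.5% CMC-Na or 0.5% Tween 80, 10 ml/kg). For oral dosing, mean of readings at 30, 60, 90 and 120 min used.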
# [6] = test system: normal mice and SART stress mice; test: Analgesic effect, acetic acid writhing method; assay type: in vivo; details: Mus musculus, sc, 100 mg/Kg subcutaneously
# Summary of the method: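 Normal mice and mice after 8 days of SART stress (5 per group) received 100 mg/Kg compound subcutaneously. Writhing was then induced with 0.7% acetic acid in isotonic saline, 0.1 ml/10 g i.p. Writhes were counted over 15 minutes and compared with control mice.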
# [7] = test system: normal rats and SART stress rats; test: Analgesic effect, pain induced by Bradykinin; assay type: in vivo, rats (SD-strain male)
# Protocol: 5.4 Method of measuring a pain induced by Bradykinin:
# Groups each comprising 4-8 SD-strain male normal rats and SART stress rats to which SART stress had been applied for 4 days were used. The tests were carried out according to the method of Deffenu et al. [Deffenu, G., Pegrassi, L., & Fumachi. B.; J. Pharm. Pharmacol.; 18, 135 (1966)] and Blane method [Blane, G. F.; J. Pharm. Pharmacol.; 19, 367 (1967)]. The effect judged was shown by ratio of the rats in which the effect was recognized according to the method of Abe, et al. [Abe, Kaneko & Takagi; Folia Pharmacol. Japon.; 67, 9-14 (1971)].
# dd-strain male mice [8] = test: Antiulcerogenic effect on Takagi's restraint-plus-water-immersing ulcer; assay type: in vivo; details: Mus musculus, ip; for inhibition in vivo at 75 mg/kg: 75 mg/kg intraperitoneal; for inhibition in vivo at 125 mg/kg: 125 mg/kg intraperitoneal
# Protocol: 6.1 Antiulcerogenic effect on Takagi's restraint-plus-water-immersing ulcer: Groups each comprising 8-26 dd-strain male mice were used. The tests were carried out according to a method of Takagi, et al. [Chem. Pharm. Bull.; 12, 465 (1964)]. Sum of length of diseased parts in the glandular stomach was measured and it was compared with that of control group. The compounds of the present invention or DPH was given intraperitoneally immediately before the restraint and immersion in water.
# Wistar-strain male rats = test: Antiulcerogenic effect on Shay's ulcer (operative ulcer); assay type: in vivo; details: 10 times
# Protocol: 6.2. Antiulcerogenic effect on Shay's ulcer (operative ulcer):
# Tests were carried out by using groups of rats each comprising 5-10 Wistar-strain male rats according to Shay method [Shay Harry; Gastroenterology,; 5, 43 (1945)]. Ulcers in the anterior stomach were classified on the following basis:
# 2. 1-5 small ulcers (diameter of less than 3 mm)
# 3. 6 or more small ulcers or one big ulcer (diameter of more than 3 mm)
# 4. two or more big ulcers
# [9] = ip, 1 h, SART stress mice, intraperitoneal 100 mg/kg, 60 minutes
# [10] = ip, 1 h, normal mice, intraperitoneal 100 mg/kg, 60 minutes
# [11] = po, SART stress mice, peroral 100 mg/kg, average of 30, 60, 90 and 120 minutes
# [12] = po, SART stress mice, average of 30, 60, 90 and 120 minutes
# [13] = po, normal mice, peroral 100 mg/kg, average of 30, 60, 90 and 120 minutes
# [14] = po, normal mice, average of 30, 60, 90 and 120 minutes
# [15] = SART stress mice, intraperitoneal 50 mg/kg, 60 minutes
# [16] = normal mice, intraperitoneal 50 mg/kg, 60 minutes
# [17] = SART stress rats, intraperitoneal 100 mg/kg
# [18] = SART stress rats, peroral 100 mg/kg
# [19] = normal rats, intraperitoneal 100 mg/kg
# [20] = SART stress mice, peroral 50 mg/kg, average of 30, 60, 90 and 120 minutes
# [21] = normal mice, peroral 50 mg/kg, average of 30, 60, 90 and 120 minutes
Structure (SMILES),LD50 at 72 h ([1]; female),LD50 at 72 h ([1]; male),LD50 at 72 h ([2]; female),LD50 at 72 h ([2]; male),Ach-induced contraction of the isolated deodedum (isolated duodenum; 10 mg/kg/day intraperitoneal),Inhibitory effect on spontaneous motor activities (dd-strain male mice [3]; 50 mg/kg intraperitoneal),Inhibitory effect on spontaneous motor activities (dd-strain male mice [3]; 100 mg/kg intraperitoneal),Inhibitory effect on exploratory movements (dd-strain male mice [4]; 50 mg/kg intraperitoneal),Inhibitory effect on exploratory movements (dd-strain male mice [4]; 100 mg/kg intraperitoneal),"change in vivo at 100 mg/kg [5, 9]","change in vivo at 100 mg/kg [5, 10]","change in vivo at 100 mg/kg [5, 11]","change in vivo at 100 mg/kg [5, 13]","Analgesic effect [5, 15]","Analgesic effect [5, 16]",inhibition in vivo at 100 mg/kg ([6]; SART stress mice),inhibition in vivo at 100 mg/kg ([6]; normal mice),"Analgesic effect [7, 17]","Analgesic effect [7, 18]","Analgesic effect [7, 19]",also measured
"COc1ccc(C2(c3ccc(OC)c(Cl)c3)NC(=O)NC2=O)cc1 (stereo not drawn) [Compound 2, 5-(3-chloro-4-methoxyphenyl)-5-(4-methoxyphenyl)hydantoin]",920 mg/kg,1000 mg/kg,1540 mg/kg,1600 mg/kg,80 ± 13%,39.8%,50.1%,29.0%,38.8%,139%,90.7%,70%,37.3%,79.6%,54.6%,27.1%,4.4%,75%,30%,66.7%,"Heart rate (SART stress mice; 50 mg/kg/day): 698 ± 42 min⁻¹; QRS-time (SART stress mice; 50 mg/kg/day): 12.9 ± 0.8 1/1000 sec; Inhibitory effect on spontaneous motor activities (dd-strain male mice [3]; 125 mg/kg intraperitoneal): 56.3%; Inhibitory effect on exploratory movements (dd-strain male mice [4]; 125 mg/kg intraperitoneal): 47.8%; change in vivo at 160 mg/kg [5, 12]: 88.2%; change in vivo at 160 mg/kg [5, 14]: 50.2%; Analgesic effect ([7]; normal rats, peroral 100 mg/kg): 10%; inhibition in vivo at 75 mg/kg (dd-strain male mice [8]): 15.4%; inhibition in vivo at 150 mg/kg (dd-strain male mice [8]; 150 mg/kg intraperitoneal): 36.6%; Antiulcerogenic effect on Shay's ulcer (operative ulcer) (Wistar-strain male rats; 100 mg/kg intraperitoneal): 23.4%; Antiulcerogenic effect on Shay's ulcer (operative ulcer) (Wistar-strain male rats; 150 mg/kg intraperitoneal): 29.3%"
"O=C1NC(=O)C(c2ccc(O)cc2)(c2ccc(O)cc2)N1 [Compound 4, 5,5-Bis(4-hydroxyphenyl)hydantoin]",980 mg/kg,1060 mg/kg,1320 mg/kg,1370 mg/kg,95 ± 10%,42.4%,61.4%,30.1%,54.5%,162%,41.6%,67.3%,52.3%,88.2%,36.1%,33.6%,4.8%,100%,40%,100%,"Heart rate (SART stress mice; 37.5 mg/kg/day): 683 ± 61 min⁻¹; QRS-time (SART stress mice; 37.5 mg/kg/day): 12.2 ± 0.8 1/1000 sec; Ach-induced contraction of the isolated deodedum (isolated duodenum; 5 mg/kg/day intraperitoneal): 61 ± 16%; Inhibitory effect on spontaneous motor activities (dd-strain male mice [3]; 75 mg/kg intraperitoneal): 52.2%; Inhibitory effect on exploratory movements (dd-strain male mice [4]; 125 mg/kg intraperitoneal): 61.3%; change in vivo at 160 mg/kg [5, 12]: 90.5%; change in vivo at 160 mg/kg [5, 14]: 68.2%; Analgesic effect [5, 20]: 56.8%; Analgesic effect [5, 21]: 38.8%; Analgesic effect ([7]; normal rats, peroral 100 mg/kg): 0%; inhibition in vivo at 25 mg/kg (dd-strain male mice [8]; 25 mg/kg intraperitoneal): 14.2%; inhibition in vivo at 75 mg/kg (dd-strain male mice [8]): 39.1%; inhibition in vivo at 125 mg/kg (dd-strain male mice [8]): 53%; Antiulcerogenic effect on Shay's ulcer (operative ulcer) (Wistar-strain male rats; 25 mg/kg intraperitoneal): 26.4%; Antiulcerogenic effect on Shay's ulcer (operative ulcer) (Wistar-strain male rats; 50 mg/kg intraperitoneal): 38.0%; Antiulcerogenic effect on Shay's ulcer (operative ulcer) (Wistar-strain male rats; 100 mg/kg intraperitoneal): 50.0%; Antiulcerogenic effect on Shay's ulcer (operative ulcer) (Wistar-strain male rats; 150 mg/kg intraperitoneal): 64.8%"
"O=C1NC(=O)C(c2cc(O)c(O)c(O)c2)(c2cc(O)c(O)c(O)c2)N1 [Compound 36, 5,5-Bis(3,4,5-trihydroxyphenyl)hydantoin]",780 mg/kg,820 mg/kg,1020 mg/kg,1320 mg/kg,83 ± 8%,37.8%,49.1%,30.6%,36.7%,180%,67%,102%,49.9%,120.5%,44.0%,29.4%,8.2%,50%,33.3%,33.3%,"Heart rate (SART stress mice; 100 mg/kg/day): 737 ± 65 min⁻¹; QRS-time (SART stress mice; 100 mg/kg/day): 13.8 ± 1.2 1/1000 sec; Analgesic effect [5, 20]: 63.3%; Analgesic effect [5, 21]: 40.3%; Analgesic effect ([7]; normal rats, peroral 100 mg/kg): 10%; inhibition in vivo at 125 mg/kg (dd-strain male mice [8]): 31.2%; Antiulcerogenic effect on Shay's ulcer (operative ulcer) (Wistar-strain male rats; 100 mg/kg intraperitoneal): 30.1%; Antiulcerogenic effect on Shay's ulcer (operative ulcer) (Wistar-strain male rats; 150 mg/kg intraperitoneal): 43.9%"
